Data reported in patent US10144706B2 (BRISTOL-MYERS SQUIBB COMPANY, priority 2016, dated 2018).
Where two headings read alike, the source gives them in different places.

Biological target: T1, PD-1/PD-L1 interaction (PD-1-Ig / PD-L1-His) (Homo sapiens, UniProt Q9NZQ7)
T1 construct: hPDL1(18-239)-TVMV-His; TVMV protease site linker (C); made in house; host or cells: HEK293T
Assay: PD-1/PD-L1 Homogenous Time-Resolved Fluorescence (HTRF) binding assay
Conditions: PD-L1-His 10 nM, PD-1-Ig 20 nM, read-out: Range or IC50
Text: The ability of the compounds of formula (I) to bind to PD-L1 was investigated using a PD-1/PD-L1 Homogenous Time-Resolved Fluorescence (HTRF) binding assay.
Homogenous Time-Resolved Fluorescence (HTRF) Binding Assay.
The interaction of PD-1 and PD-L1 can be assessed using soluble, purified preparations of the extracellular domains of the two proteins. The PD-1 and PD-L1 protein extracellular domains were expressed as fusion proteins with detection tags, for PD-1, the tag was the Fc portion of Immunoglobulin (PD-1-Ig) and for PD-L1 it was the 6 histidine motif (PD-L1-His). All binding studies were performed in an HTRF assay buffer consisting of dPBS supplemented with 0.1% […] bovine serum albumin and 0.05% (v/v) Tween-20. For the h/PD-L1-His binding assay, inhibitors were pre-incubated with PD-L1-His (10 nM final) for 15 m in 4 μl of assay buffer, followed by addition of PD-1-Ig (20 nM final) in 1 μl of assay buffer and further incubation for 15 m. HTRF detection was achieved using europium crypate-labeled anti-Ig (1 nM final) and allophycocyanin (APC) labeled anti-His (20 nM final). Antibodies were diluted in HTRF detection buffer and 5 μl was dispensed on top of the binding reaction. […] Additional binding assays were established between the human proteins PD-1-Ig/PD-L2-His (20 & 5 nM, respectively) and CD80-His/PD-L1-Ig (100 & 10 nM, respectively). […]

T1 sequence (Q9NZQ7 with tags, fused parts or gaps): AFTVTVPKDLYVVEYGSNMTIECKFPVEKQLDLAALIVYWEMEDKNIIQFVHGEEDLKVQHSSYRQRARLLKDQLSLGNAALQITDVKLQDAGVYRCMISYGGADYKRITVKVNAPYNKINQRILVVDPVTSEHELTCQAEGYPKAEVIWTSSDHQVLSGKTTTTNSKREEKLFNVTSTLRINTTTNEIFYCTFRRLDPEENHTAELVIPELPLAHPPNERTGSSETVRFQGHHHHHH

IC50 (IC50 range class) [nM] | IC50 (numeric IC50) [nM] | Compound
0.04 to 20 |  | CC(=O)c1cc(Cl)c(OCc2cccc(-c3cccc(COc4cc(OCc5cncc(C#N)c5)c(CN[C@H](C(=O)O)[C@@H](C)[C@H](C)O)cc4Cl)c3C)c2C)cc1OCc1cncc(C#N)c1 [Example 60050]
90.1 to 1000 |  | Cc1c(OCCCN2CC[C@@H](O)C2)cccc1-c1cccc(OCCCN2CC[C@@H](O)C2)c1 [Example 3023, (3R,3′R)-1,1′-(((2-methyl-[1,1′-biphenyl]-3,3′-diyl)bis(oxy))bis(propane-3,1-diyl))bis(pyrrolidin-3-ol)]
0.04 to 20 |  | Cc1c(COc2cc(OCc3cncc(C#N)c3)c(CO)cc2Cl)cccc1-c1cccc(COc2cc(OCc3cncc(C#N)c3)c(CN[C@@H](CCO)C(=O)O)cc2Cl)c1C [Example 50360]
0.04 to 20 |  | Cc1c(COc2cc(OCc3cncc(C#N)c3)c(CNC(CO)CO)cc2Cl)cccc1-c1cccc(COc2cc(OCc3cncc(C#N)c3)c(CNC(CO)CO)cc2Cl)c1C [Example 2128, 5,5′-((((((2,2′-dimethyl-[1,1′-biphenyl]-3,3′-diyl)bis(methylene))bis(oxy))bis(4-chloro-6-(((1,3-dihydroxypropan-2-yl)amino)methyl)-3,1-phenylene))bis(oxy))bis(methylene))dinicotinonitrile]
20.1 to 90 |  | Cc1c(OCCCNCCc2ncn(C)c2Cl)cccc1-c1cccc(OCCCN2CC[C@@H](O)C2)c1C [Example 2061]
20.1 to 90 |  | Cc1c(COc2cc(OCc3cncc(C#N)c3)c(CN[C@H](C(=O)O)[C@@H](C)OCc3ccccc3)cc2Cl)cccc1-c1cccc(COc2cc(OCc3cncc(C#N)c3)c(CN[C@H](C(=O)O)[C@@H](C)OCc3ccccc3)cc2Cl)c1C [Example 41050]
1000 to 10000 |  | Cc1cc(OCCCN2CC[C@@H](O)C2)ccc1-c1cccc(OCCCN2CC[C@@H](O)C2)c1C [Example 3006, (3R,3′R)-1,1′-(((2,2′-dimethyl-[1,1′-biphenyl]-3,4′-diyl)bis(oxy))bis(propane-3,1-diyl))bis(pyrrolidin-3-ol)]
1000 to 10000 |  | O=C(NCCCOc1cccc(-c2cccc(OCCCNC(=O)C(O)CO)c2Cl)c1Cl)C(O)CO (stereo not shown) [Example 2135, N,N′-(((2,2′-dichloro-[1,1′-biphenyl]-3,3′-diyl)bis(oxy))bis(propane-3,1-diyl))bis(2,3-dihydroxypropanamide)]
20.1 to 90 |  | Cc1c(OCCCNCc2ccccn2)cccc1-c1cccc(OCCCN2CC[C@@H](O)C2)c1C [Example 2024, (R)-1-(3-((2,2′-dimethyl-3′-(3-((pyridin-2-ylmethyl)amino)propoxy)-[1,1′-biphenyl]-3-yl)oxy)propyl)pyrrolidin-3-ol]
 | 1.1 | Cc1c(COc2cc(OCc3cncc(C#N)c3)c(CNC(C)(CO)C(=O)O)cc2Cl)cccc1-c1cccc(COc2cc(OCc3cncc(C#N)c3)c(CNC(C)(CO)C(=O)O)cc2Cl)c1C (stereo not shown) [Example 40210]
> 10000 |  | Cc1c(OCCCN2CC[C@@H](O)C2)cccc1-c1cccc(S(=O)(=O)NCCN2CC[C@@H](O)C2)c1C [Example 3016, N-(2-((R)-3-hydroxypyrrolidin-1-yl)ethyl)-3′-(3-((R)-3-hydroxypyrrolidin-1-yl)propoxy)-2,2′-dimethyl-[1,1′-biphenyl]-3-sulfonamide]
 | 1050 | Cc1c(COc2cc(OCc3cncc(C#N)c3)c(Cl)cc2Cl)cccc1-c1cccc(COc2cc(OCc3cncc(C#N)c3)c(CN[C@@H](C(=O)O)[C@H](C)O)cc2Cl)c1C [Example 70040]
20.1 to 90 |  | Cc1c(OCCCN2CCC(CO)CC2)cccc1-c1cccc(OCCCN2CC[C@@H](O)C2)c1C [Example 2106, (R)-1-(3-((3′-(3-(4-(hydroxymethyl)piperidin-1-yl)propoxy)-2,2′-dimethyl-[1,1′-biphenyl]-3-yl)oxy)propyl)pyrrolidin-3-ol]
90.1 to 1000 |  | Cc1c(NCCCN2CC[C@@H](O)C2)cccc1-c1cccc(OCCCN2CC[C@@H](O)C2)c1C [Example 3018, (R)-1-(3-((3′-(3-((R)-3-hydroxypyrrolidin-1-yl)propoxy)-2,2′-dimethyl-[1,1′-biphenyl]-3-yl)amino)propyl)pyrrolidin-3-ol]
90.1 to 1000 |  | Cc1c(OCCCN2CCC(N(C)C)CC2)cccc1-c1cccc(OCCCN2CC[C@@H](O)C2)c1C [Example 2070, (R)-1-(3-((3′-(3-(4-(dimethylamino)piperidin-1-yl)propoxy)-2,2′-dimethyl-[1,1′-biphenyl]-3-yl)oxy)propyl)pyrrolidin-3-ol]
0.04 to 20 |  | COC(=O)CC(O)CNCc1cc(Cl)c(OCc2cccc(-c3cccc(COc4cc(OCc5cncc(C#N)c5)c(CNCC(O)CC(=O)OC)cc4Cl)c3C)c2C)cc1OCc1cncc(C#N)c1 (stereo not shown) [Example 40710]
0.04 to 20 |  | Cc1c(OCCCNCCc2ccncc2)cccc1-c1cccc(OCCCNCCc2ccncc2)c1C [Example 2028, 3,3′-((2,2′-dimethyl-[1,1′-biphenyl]-3,3′-diyl)bis(oxy))bis(N-(2-(pyridin-4-yl)ethyl)propan-1-amine)]
0.04 to 20 |  | COc1cc(OCc2cccc(-c3cccc(COc4cc(OC)c(CNCc5cncnc5)cc4Cl)c3C)c2C)c(Cl)cc1CNCc1cncnc1 [Example 5033, 1,1′-((((2,2′-dimethyl-[1,1′-biphenyl]-3,3′-diyl)bis(methylene))bis(oxy))bis(5-chloro-2-methoxy-4,1-phenylene))bis(N-(pyrimidin-5-ylmethyl)methanamine)]
 | 99 | Cc1c(OCCCN2CC(N(C)C)C2)cccc1-c1cccc(OCCCN2CC[C@@H](O)C2)c1C [Example 2002, (R)-1-(3-((3′-(3-(3-(dimethylamino)azetidin-1-yl)propoxy)-2,2′-dimethyl-[1,1′-biphenyl]-3-yl)oxy)propyl)pyrrolidin-3-ol]
1000 to 10000 |  | Cc1c(OCCCN2CC[C@@H](O)C2)cccc1-c1cccc(OCCCN2C[C@H](O)C[C@H]2C(=O)O)c1C [Example 2039, (2S,4R)-4-hydroxy-1-(3-((3′-(3-((R)-3-hydroxypyrrolidin-1-yl)propoxy)-2,2′-dimethyl-[1,1′-biphenyl]-3-yl)oxy)propyl)pyrrolidine-2-carboxylic acid]
0.04 to 20 |  | Cc1c(COc2cc(OCc3cncc(C#N)c3)c(CN[C@H](C(=O)O)c3ccccc3)cc2Cl)cccc1-c1cccc(COc2cc(OCc3cncc(C#N)c3)c(CN[C@H](C(=O)O)c3ccccc3)cc2Cl)c1C [Example 40360]
 | 69 | CC(=O)N[C@@H]1CCN(CCCOc2cccc(-c3cccc(OCCCN4CC[C@@H](O)C4)c3C)c2C)C1 [Example 2018, N—((R)-1-(3-((3′-(3-((R)-3-hydroxypyrrolidin-1-yl)propoxy)-2,2′-dimethyl-[1,1′-biphenyl]-3-yl)oxy)propyl)pyrrolidin-3-yl)acetamide]
20.1 to 90 |  | COc1ccc(CNCc2cc(Cl)c(OCc3cccc(-c4cccc(COc5cc(OCc6cncc(C#N)c6)c(CNCc6ccc(OC)cc6OC)cc5Cl)c4C)c3C)cc2OCc2cncc(C#N)c2)c(OC)c1 [Example 41230]
20.1 to 90 |  | Cc1c(OCCCNCC(O)C(=O)O)cccc1-c1cccc(OCCCN2CC[C@@H](O)C2)c1C (stereo partly drawn) [Example 2016, 2-hydroxy-3-((3-((3′-(3-((R)-3-hydroxypyrrolidin-1-yl)propoxy)-2,2′-dimethyl-[1,1′-biphenyl]-3-yl)oxy)propyl)amino)propanoic acid]
0.04 to 20 |  | Cc1c(COc2cc(OCc3cncc(C#N)c3)c(CN[C@@H](CCO)C(=O)O)cc2Cl)cccc1-c1cccc(COc2cc(OCc3cncc(C#N)c3)c(CN[C@@H](CCO)C(=O)O)cc2Cl)c1C [Example 40740]
